Source: publication PMC3408624 (Chemistry & biology, 2012)
Entries after “also recorded” stand apart in the source; their conditions may differ. Like-named read-outs stand apart in the source and are kept apart here.

Legend:
[1] = biological target: T1, anthrax lethal factor (LF) (Bacillus anthracis, UniProt P15917); experiment: biochemical; assay type: biochemical
[2] = biological target: T1, anthrax lethal factor (LF); experiment: biochemical; assay type: biochemical; remark: listed apart in the source
[3] = tested on: RAW264.7 cells; assay type: cell-based
[4] = biological target: LF cleavage of endogenous MKK3 and MKK4 in RAW264.7 cell lysate (Bacillus anthracis, UniProt P15917); assay type: biochemical
Sequence of LF cleavage of endogenous MKK3 and MKK4 in RAW264.7 cell lysate (P15917 34-809 limits assumed): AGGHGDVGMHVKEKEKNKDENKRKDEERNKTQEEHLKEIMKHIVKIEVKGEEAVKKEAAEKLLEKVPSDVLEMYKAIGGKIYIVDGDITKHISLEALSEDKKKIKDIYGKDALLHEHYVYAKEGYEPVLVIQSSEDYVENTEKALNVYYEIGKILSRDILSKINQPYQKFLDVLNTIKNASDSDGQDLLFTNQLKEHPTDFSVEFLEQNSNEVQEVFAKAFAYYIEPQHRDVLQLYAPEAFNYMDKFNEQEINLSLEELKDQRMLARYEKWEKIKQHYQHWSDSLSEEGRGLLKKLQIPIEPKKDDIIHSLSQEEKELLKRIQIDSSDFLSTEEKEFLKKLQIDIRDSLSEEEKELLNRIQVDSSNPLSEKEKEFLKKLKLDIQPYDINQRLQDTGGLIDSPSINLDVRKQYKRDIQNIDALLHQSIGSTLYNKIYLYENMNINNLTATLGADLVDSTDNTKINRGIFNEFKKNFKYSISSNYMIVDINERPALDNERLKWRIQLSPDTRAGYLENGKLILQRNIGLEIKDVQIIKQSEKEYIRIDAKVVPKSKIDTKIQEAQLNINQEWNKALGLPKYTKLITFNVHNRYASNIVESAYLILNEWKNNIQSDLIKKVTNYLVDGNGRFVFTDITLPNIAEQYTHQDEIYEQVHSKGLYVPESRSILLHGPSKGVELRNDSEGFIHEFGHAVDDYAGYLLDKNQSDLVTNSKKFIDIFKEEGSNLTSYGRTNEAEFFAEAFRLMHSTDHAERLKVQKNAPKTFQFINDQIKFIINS

[5] = tested on: RAW264.7 cells; assay type: cell-based; remark: listed apart in the source
[6] = biological target: T1, anthrax lethal factor (LF); assay type: biochemical
[7] = read-out: IC50 (µM), MKK6 cleavage

T1 sequence (P15917 34-809 limits assumed): as above

Row | Compound | Inhibition of LF cleavage of a peptide substrate (in words) [1] | IC50 [2] | MKK3 cleavage in intact LeTx-treated cells [3] | Inhibition of MKK3 cleavage by LF in cell lysate [4] | Inhibition of MKK4 cleavage by LF in cell lysate [4] | Protection against LeTx-induced cell death (MTT viability) [5] | Inhibition of MKK6 cleavage by LF (structure-activity profile, in words) [2] | IC50 [2, 7] | other results
1 | COc1cc(C)c2c(c1C=O)Oc1c(c(C)c(O)c3c1C(O)OC3=O)OC2=O (centres unmarked) [Compound 1, Stictic acid] | weak inhibitors | 24 ± 3 µM | decreased MKK3 cleavage | inhibited cleavage | inhibited cleavage | partial protection |  |  | 
2 | Cc1cc(O)c(C=O)c2c1C(=O)Oc1c(CO)c(O)c3c(c1O2)C(O)OC3=O (centres unmarked) [Compound 2, Salazinic acid] | weak inhibitors |  | decreased MKK3 cleavage | inhibited cleavage | inhibited cleavage | partial protection | active as inhibitors | 42 ± 5 µM | Mode of inhibition of LF cleavage of MKK6 [2]: competitive inhibition; also recorded: increased KM with no effect on Vmax
3 | COc1cc(C(=O)O)c2c(c1C)OC(=O)c1c(C)cc(O)c(C=O)c1O2 [Compound 3, Parellic acid] | weak inhibitors |  | decreased MKK3 cleavage | inhibited cleavage | inhibited cleavage | partial protection | active as inhibitors | 125 ± 20 µM | 
4 | COC(=O)c1c(OC)cc2c(c1C)Oc1c(Cl)c(O)c(Cl)c(C)c1C(=O)O2 [Compound 4, Gangaleoidin] |  | > 250 µM |  |  |  |  | failed to inhibit LF |  | 
5 | CCCCCC(=O)Cc1cc(O)cc2c1C(=O)Oc1cc(O)c(C(=O)O)c(CCCCC)c1O2 [Compound 5, Physodic acid] |  | > 250 µM |  |  |  |  | failed to inhibit LF |  | 
6 | Cc1cc(OC(=O)c2c(C)cc(O)cc2O)cc(O)c1C(=O)O [Compound 6, Lecanoric acid] |  |  |  |  |  | failed to inhibit cell death | lack of inhibition |  | IC50 (µM), MKK6 cleavage [2]: No inhibition
7 | COC(=O)c1c(C)cc(OC(=O)c2c(C)cc(O)c(C=O)c2O)c(C)c1O [Compound 7, Atranorin] |  |  |  |  |  | failed to inhibit cell death | lack of inhibition |  | IC50 (µM), MKK6 cleavage [2]: No inhibition
8 | CNC(=O)[C@H](Cc1c[nH]c2ccccc12)NC(=O)[C@@H](CC(=O)NO)CC(C)C [GM6001, reference compound] |  |  |  |  |  |  |  |  | IC50 [1]: 9 µM; Result in primary FP screen for inhibition of LF cleavage of labeled MKK6 [6]: scored as a hit
9 | COc1ccccc1C=O [o-anisaldehyde, reference compound] |  |  |  |  |  |  |  |  | Inhibition of MKK6 cleavage by LF (in words) [2]: no detectable inhibition
10 | Reduced stictic acid [Compound 8] |  |  |  |  |  |  |  | > 250 µM | 
